These results are taken from ChEMBL document CHEMBL1150526, “Isolation and X-ray crystal structure of racemic Xestospongin D from the Singapore marine sponge Niphates sp1” (1996).

Holding throughout (format): functional
One test deals with Micrococcus luteus. Description: Compound was evaluated for the inhibition of growth of Micrococcus luteus; (12.5-25 ug/disk).
The test system of another test is Leukemia cell. Description: Compound was evaluated for its activity to inhibit growth of human leukemia cancer cell line.
A further test concerns Breast cancer cell line. Put plainly: Compound was evaluated for its activity to inhibit growth of human breast cancer cell line.
For another test, the system named is P388. Put plainly: Compound was evaluated for its activity to inhibit growth of murine P388 lymphocytic leukemia. Conditions: Mus musculus, read-out: ED50 (the source's name).

In brackets after ≈: the same amount, converted by molar mass.

Regarding `O[C@@]12CCCCCC[C@H]3CCN4CCC[C@H](CCCCCC[C@H]5CCN(CCC1)[C@@H]2O5)[C@H]4O3` [XESTOSPONGIN D], the MIC against Micrococcus luteus is given as 25 ug disk-1. For the same compound, the GI50 in the test with Leukemia cell was 3.62 µM; with Breast cancer cell line it was 4.53 µM. In the test with P388, the EC50 was 1.7 µg/mL (≈ 3.67 µM).

A word on the GI50: it is the concentration giving 50% growth inhibition. Read a low GI50 as greater sensitivity of the cells.
